Article PMC6155299, “Synthesis and Evaluation of New Pyrazoline Derivatives as Potential Anticancer Agents in HepG-2 Cell Line” (Molecules : A Journal of Synthetic Chemistry and Natural …, 2017)

How the values were obtained:
primary hepatocytes = test: MTS assay, cytotoxicity against primary hepatocytes; type: cell-based, rat
Procedure: (§1) Primary hepatocytes were isolated from male SD rats weighing 250–300 g using a modified in situ collagenase perfusion method and then the cells were cultured in Dulbecco’s Modified Eagle’s Medium (DMEM) with 2 g/L bovine serum albumin (BSA) and 50 mg/L gentamicin. HepG-2 cells were incubated in RPMI 1640 medium supplemented with 10% fetal bovine serum (FBS) and 1% penicillin–streptomycin liquid. Cells were incubated at 37 °C in a humidified atmosphere of 95% air and 5% CO2. Stock solutions of compounds and cisplatin were prepared in dimethyl sulfoxide (DMSO), then added to fresh culture medium to obtain final concentrations.
The cytotoxicological activity of compounds b5, b9, and b14–18 were evaluated against primary hepatocytes using the MTS assay (Cell Titer 96® Aqueous Cell Proliferation Assay, Promega, Cat. No. G5421) as a fast and sensitive quantification of cell proliferation and viability. The concentrations of compounds were prepared in seven different concentrations (2.5 µM, 5 µM, 10 µM, 20 µM, 40 µM, 80 µM, 160 µM). Cells were seeded into 96-well plates at a density of 26,000 cells/well. The plates were incubated for 24 h prior to any treatment. At the end of this period, the medium was removed and 100 µL of different concentrations of pyrazoline derivatives were added to wells for 48 h. Following the exposure period, 20 μL of the combined MTS/PMS solution was added to cells and incubated for a further 2 h at 37 °C, then the absorbance was recorded at 490 nm using an ELISA Plate Reader (ELISA, Emeryville, CA, USA). The values of IC50, the effective concentration at which 50% of the primary hepatocytes were inhibited, were calculated to evaluate the cytotoxic activities.

HepG-2 cells [1] = test: Cell cycle analysis by flow cytometry (PI); type: cell-based, human; conditions: 24 h
Procedure: Based on the results of the cytotoxicity assay, compound b17 was selected for further mechanistic study with HepG-2 cells. For flow cytometry analysis of DNA content, approximately 1.5 × 10^5 HepG-2 cells/well in exponential growth mode were plated in 6-well plates and allowed to adhere, then treated with different concentrations of compound b17 for 24 h. After incubation, the cells were collected, centrifuged, and fixed with ice-cold ethanol (70%). The cells were treated with RNase A and stained with PI. Samples were analyzed on a BD Accuri C6 flow cytometer (BD, New York, NY, USA). DNA histograms were analyzed using ModFit for Windows.

HepG-2 cells [2] = test: MTT assay, cytotoxic effects on HepG-2 cells; type: cell-based, human; conditions: Homo sapiens, HepG2, HepG-2 cell line, 48 h, read-out: IC50 HepG-2
Procedure: as §1
Next, compounds b14 and b18 were prepared in five different concentrations (20 µM, 40 µM, 60 µM, 80 µM, 100 µM), and compounds b15, b16, and b17, along with cisplatin, were prepared in seven different concentrations (2.5 µM, 5 µM, 7.5 µM, 10 µM, 20 µM, 40 µM, 60 µM). A suspension of growing cells (50,000/mL) was prepared, and 100 µL/well dispensed into 96-well plates, yielding a density of 5000 cells/well. The cells were incubated for 24 h before adding the pyrazoline derivatives. The optimal cell number for cytotoxicity assays was determined in preliminary experiments. At the end of the incubation period, the medium was removed and 100 µL of different concentrations of pyrazoline derivatives were added to wells for 24 h and 48 h. Following the exposure period, 20 µL of MTT (5 mg/mL) were added to cells and incubated for a further 4 h at 37 °C. The medium was removed and the formazan crystals were solubilized by adding 150 µL DMSO to each well. After 10 min of shaking, the absorbance was measured at 550 nm using a FilterMax F5 Multi-Mode Microplate Reader (Energy Chemical, Shanghai, China). Cells were treated with each compound with four replicates per concentration, and each experiment was conducted at least three times. Dose–inhibition rate curves and IC50 values, defined as the drug concentrations which reduced absorbance to 50% of control values, were then generated.

HepG-2 cells [3] = test: Annexin-V assay (annexin V/PI flow cytometry); type: cell-based, human; conditions: 12 h
Procedure: Approximately 1.5 × 10^5 HepG-2 cells/well were plated in 6-well plates and allowed to adhere. After 24 h, the medium was replaced with fresh culture medium containing compound b17 at final concentrations of 0 µM, 0.9 µM, 2.7 µM, and 4.5 µM. Cells were harvested after 12 h. The cells were trypsinized, washed in phosphate-buffered saline (PBS), and centrifuged at 1000 rpm for 5 min. The cells were then resuspended in 200 µL of staining solution (containing 10 µL PI and 5 µL Annexin V–PE in binding buffer), mixed gently, and incubated for 15 min at 25 °C in the dark. The samples were later analyzed with a BD Accuri™ C6 flow cytometer.

COc1cc(C2CC(c3ccccc3O)=NN2C(=O)c2cc3ccccc3s2)cc(OC)c1O (stereo not drawn) [b17, Benzo[b]thiophen-2-yl-[5-(4-hydroxy-3,5-dimethoxyphenyl)-3-(2-hydroxyphenyl)-4,5-dihydro-pyrazol-1-yl]-methanone]
melting point: 169.2 to 170.1 °C | IC50 (primary hepatocytes; Rattus norvegicus, Hepatocyte, 48 h): 33.5 ± 2.33 µM | cytotoxicity against primary hepatocytes (in words) (primary hepatocytes; compared with HepG-2): low cytotoxicity | cells in G1 phase (Dip G1) (HepG-2 cells [1]; HepG-2, 0.9 µM): 56.88% | cells in G2/M phase (Dip G2) (HepG-2 cells [1]; HepG-2, 0.9 µM): 16.90% | cells in S phase (Dip S) (HepG-2 cells [1]; HepG-2, 0.9 µM): 26.22% | cells in G1 phase (Dip G1) (HepG-2 cells [1]; HepG-2, 2.7 µM): 33.02% | cells in G2/M phase (Dip G2) (HepG-2 cells [1]; HepG-2, 2.7 µM): 41.50% | cells in S phase (Dip S) (HepG-2 cells [1]; HepG-2, 2.7 µM): 25.48% | cells in G1 phase (Dip G1) (HepG-2 cells [1]; HepG-2, 4.5 µM): 3.11% | cells in S phase (Dip S) (HepG-2 cells [1]; HepG-2, 4.5 µM): 13.89% | IC50 (HepG-2 cells [2]): 3.57 ± 1.39 µM | percentage of cell apoptosis (HepG-2 cells [3]; HepG-2, 0.9 µM): 7.6% | percentage of cell apoptosis (HepG-2 cells [3]; HepG-2, 2.7 µM): 8.7% | percentage of cell apoptosis (HepG-2 cells [3]; HepG-2, 4.5 µM): 10.2%
